Laboratory results published in US10526322B2, “Inhibitors of kidney-type glutaminase, GLS-1” (CORNELL UNIVERSITY, priority 2014, dated 2020).

Assays:
Dbl-inducible MEFs = test: Foci forming assay; assay type: cell-based, mouse; details: MEFs expressing Dbl, 10 μM 968
Text: Inducible oncogenic Dbl cell lines were created using the TET-OFF system in mouse embryonic fibroblasts (MEFs) following the manufacturer's instructions (Clontech). Briefly, PCR products for onco-Dbl-containing NotI and XbaI restriction endonuclease sites were cloned in the per2.1 vector using the TOPO-TA cloning kit (Invitrogen) and subsequently subcloned into the p-TREHA vector (Clontech). The pTRE-HA-onco-Dbl was then co-transfected with pMET-Puro in a 20:1 ratio into parental MEFs (Clontech), which contained the transcriptional transactivator (tTa), with Lipofectamine (Invitrogen). Cells were placed under puromycin selection at 48 hours post transfection, and colonies were selected after 2-4 weeks for doxycycline-dependent expression of HA-onco-Dbl using HA.11 antibody (Covance). Cells were maintained in DMEM supplemented with 10% (v/v) Tet system-approved FBS (clontech) and 100 μg/mL G418 (Gibco). To suppress Dbl expression, 1 μg/mL doxycycline was added to the medium every 2 days. Cells were induced by re-plating in doxycycline-free medium where residual doxycycline was removed by replacing the medium 3 hours after plating. Immunofluorescence was conducted on cells grown 48-72 hours on glass cover slips and fixed with 3.7% formaldehyde. […] Digital images were collected using a Zeiss fluorescence microscope and AxioVision 3.1 software. […]

488-GAC and QSY9-GAC = molecular target: T1, 488-GAC and QSY9-GAC (Mus musculus, UniProt D3Z7P3); test: FRET assay for GAC tetramer formation; assay type: binding; details: 25 nM 488-GAC and 25 nM QSY9-GAC
T1 construct: (residues 72-603) was cloned into a pET23a vector; His-tag with thrombin cleavage site (N, cleaved yes); made in house
T1 sequence (D3Z7P3 72-603 isoform D3Z7P3-2): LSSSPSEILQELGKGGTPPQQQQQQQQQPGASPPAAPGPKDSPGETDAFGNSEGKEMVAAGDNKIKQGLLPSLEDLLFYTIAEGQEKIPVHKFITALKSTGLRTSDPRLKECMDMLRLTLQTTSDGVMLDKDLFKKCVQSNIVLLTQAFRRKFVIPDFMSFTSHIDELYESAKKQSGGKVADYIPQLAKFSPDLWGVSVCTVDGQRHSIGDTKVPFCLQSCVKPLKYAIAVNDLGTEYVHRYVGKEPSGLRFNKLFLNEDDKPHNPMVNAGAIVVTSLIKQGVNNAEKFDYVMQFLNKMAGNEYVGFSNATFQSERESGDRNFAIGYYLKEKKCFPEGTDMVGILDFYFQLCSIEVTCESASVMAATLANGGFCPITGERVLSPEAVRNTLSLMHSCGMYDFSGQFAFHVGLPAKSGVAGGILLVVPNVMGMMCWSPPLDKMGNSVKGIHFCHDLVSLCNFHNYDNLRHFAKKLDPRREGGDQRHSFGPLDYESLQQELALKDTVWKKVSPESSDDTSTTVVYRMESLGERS
Procedure: Fluorescence experiments were performed using a Varian Cary Eclipse Fluorometer in the counting mode. Excitation and emission wavelengths were 490 and 520 nm, respectively. Experiments were all performed using 1-mL samples with continuous stirring at 20° C. in 50 mM Tris-Acetate, pH 8.5, 0.1 mM ethylenediamine tetraacetic acid (EDTA). For wild-type (WT) GAC titrations in the absence of inorganic phosphate, 25 nM 488-GAC was equilibrated with 25 μL of QSY9-GAC (at varying concentrations) and allowed to equilibrate for 10 minutes, at which point 75 μL of the appropriate concentration of unlabeled WT GAC was added to provide a 10-fold excess over labeled-GAC. To test whether the purified GAC mutants can form oligomers with WT GAC, 200 nM QSY9-GAC (D391K) or 200 nM QSY9-GAC (D391K, K316E, R459E) was added to an equilibrated sample of 20 nM 488-WT GAC. When assaying the effects of BPTES and 968 on oligomer formation, BPTES or 968 was added following equilibration of a sample of 25 nM QSY9-WT GAC and 25 nM 488-WT GAC. Both BPTES and 968 were prepared in DMSO, and appropriate dilutions were made so that less than 2% (v/v) DMSO was added to an experimental sample.

CN(C)c1ccc(C2Nc3ccc4ccccc4c3C3=C2C(=O)CC(C)(C)C3)cc1Br (centres unmarked) [Compound 968]
Dbl-induced focus formation (Dbl-inducible MEFs): blocked
effect on GAC tetramer formation (488-GAC emission in mixture with QSY9-GAC) (488-GAC and QSY9-GAC): does not appear to interfere with GAC tetramer formation
